Results as given in ChEMBL document CHEMBL5375972, “Discovery of Novel 2,3-Dihydro-1H-indene-5-sulfonamide NLRP3 Inflammasome Inhibitors Targeting Colon as a Potential Therapy for Colitis” (J Med Chem, 2023).
The source made the active and inactive calls. The calls are words filed in the database; no cut-off is given here.

Key:
J774.A1 [1] = assay: Inhibition of NF-kappaB pathway in mouse J774.A1 cells assessed as inhibition of LPS-induced TNF-alpha secretion at 0.1 to 30 uM pretreated for 1hr followed by LPS addition for 6 hrs by ELISA; type: cell-based; settings: dose 0.1-30 µM, time 7.0 hrs
J774.A1 [2] = assay: […] of pyroptosis in mouse J774.A1 cells assessed as decrease in LDH release at 0.1 to 30 uM stimulated with LPS for 4.5 hs followed by incubation with compound for 30 mins and ATP addition for 30 mins by microplate reader assay; type: functional, cell-based; settings: dose 0.1-30 µM, time 1.0 hrs
[3] = AUC (0-infinity) in Sprague-Dawley rat at 1 mg/kg,iv measured after 24 hrs by HPLC-MS/MS analysis; type: ADME, organism-based; design: time 24 hrs, dose 1 mg/kg, route iv; settings: in vivo
[4] = Half life in Sprague-Dawley rat at 1 mg/kg,iv measured after 24 hrs by HPLC-MS/MS analysis; type: ADME, organism-based; settings: in vivo
[5] = Stability of compound in rat liver measured for 48 hrs; type: ADME, tissue-based
[6] = Drug distribution in Sprague-Dawley rat heart at 1 mg/kg,iv measured for 0.5 to 2 hrs by HPLC-MS/MS analysis; type: ADME, organism-based; settings: in vivo, time 0.5-2 hrs
[7] = Drug distribution in Sprague-Dawley rat colon at 1 mg/kg,iv measured for 0.5 hrs by HPLC-MS/MS analysis; type: ADME, organism-based; settings: read-out: Ct
Mus musculus [8] = assay: Anti-inflammatory activity in C57BL/6 mouse assessed as inhibition of LPS-induced IL-1beta secretion at 10 mg/kg,ip administrated for 1 hr followed by LPS stimulation for 2.5 hrs by ELISA analysis; type: functional, organism-based
Mus musculus [9] = assay: Anti-inflammatory activity in C57BL/6 mouse assessed as inhibition of LPS-induced TNFF-alpha secretion at 10 mg/kg,ip administrated for 1 hr followed by LPS stimulation for 2.5 hrs by ELISA analysis; type: functional, organism-based
Mus musculus [10] = assay: Anti-inflammatory activity in DSS-induced ulcerative colitis C57BL/6 mouse model assessed as increase in body weight at 10 mg/kg,ip administrated for 9 days; type: functional, organism-based; settings: time 9.0 day
Mus musculus [11] = assay: Anti-inflammatory activity in DSS-induced ulcerative colitis C57BL/6 mouse model assessed as increase in colon length at 10 mg/kg,ip administrated for 9 days; type: functional, organism-based; settings: time 9.0 day
Mus musculus [12] = assay: Anti-inflammatory activity in DSS-induced ulcerative colitis C57BL/6 mouse model assessed as reduction in mucosal damage in colon at 10 mg/kg,ip administrated for 9 days by Hematoxylin-eosin staining based microscopic analysis; type: functional, organism-based; settings: time 9.0 day
Mus musculus [13] = assay: Anti-inflammatory activity in DSS-induced ulcerative colitis C57BL/6 mouse model assessed as decrease in NLRP3 expression in colon at 10 mg/kg,ip administrated for 9 days by immunohistochemistry analysis; type: functional, organism-based; settings: time 9.0 day
Mus musculus [14] = assay: Anti-inflammatory activity in DSS-induced ulcerative colitis C57BL/6 mouse model assessed as decrease in IL-1beta expression in colon at 10 mg/kg,ip administrated for 9 days by immunohistochemistry analysis; type: functional, organism-based; settings: time 9.0 day
Mus musculus [15] = assay: Anti-inflammatory activity in DSS-induced ulcerative colitis C57BL/6 mouse model assessed as decrease in NLRP3 protein expression in colon at 10 mg/kg,ip administrated for 9 days by Western blotting analysis; type: functional, organism-based; settings: time 9.0 day
Mus musculus [16] = assay: Anti-inflammatory activity in DSS-induced ulcerative colitis C57BL/6 mouse model assessed as decrease in pro-IL-1beta protein expression in colon at 10 mg/kg,ip administrated for 9 days by Western blotting analysis; type: functional, organism-based; settings: time 9.0 day
Mus musculus [17] = assay: Anti-inflammatory activity in DSS-induced ulcerative colitis C57BL/6 mouse model assessed as decrease in IL-1beta p17 protein expression in colon at 10 mg/kg,ip administrated for 9 days by Western blotting analysis; type: functional, organism-based; settings: time 9.0 day
[18] = Acute toxicity in Kunming mouse model assessed as change in body weight at 1000 mg/kg,IG administration for 7 days; type: organism-based; settings: in vivo, po, 168 h, time 7 day
[19] = Acute toxicity in Kunming mouse model assessed as lethargy at 1000 mg/kg,IG administration for 7 days; type: organism-based; settings: in vivo, po, 168 h, time 7 day
[20] = Acute toxicity in Kunming mouse model assessed as lethargy at 2000 mg/kg,IG administration for 7 days; type: organism-based; settings: in vivo, po, 168 h, time 7 day
[21] = Acute toxicity in Kunming mouse model assessed as clonic convulsion at 1000 mg/kg,IG administration for 7 days; type: organism-based; settings: in vivo, po, 168 h, time 7 day
[22] = Acute toxicity in Kunming mouse model assessed as clonic convulsion at 2000 mg/kg,IG administration for 7 days; type: organism-based; settings: in vivo, po, 168 h, time 7 day
[23] = Acute toxicity in Kunming mouse model assessed as ruffled fur at 1000 mg/kg,IG administration for 7 days; type: organism-based; settings: in vivo, po, 168 h, time 7 day
[24] = Acute toxicity in Kunming mouse model assessed as ruffled fur at 2000 mg/kg,IG administration for 7 days; type: organism-based; settings: in vivo, po, 168 h, time 7 day
[25] = Subacute toxicity in C57BL/6 mouse assessed as body weight gain at 100 mg/kg,ip administrated for 14 days; type: organism-based; settings: in vivo, 336 h, time 14 day
[26] = Subacute toxicity in C57BL/6 mouse assessed as change in heart weight at 10 mg/kg,ip administrated for 14 days; type: organism-based; settings: in vivo, 336 h, time 14 day
[27] = Subacute toxicity in C57BL/6 mouse assessed as change in liver weight at 10 mg/kg,ip administrated for 14 days; type: organism-based; settings: in vivo, 336 h, time 14 day
[28] = Subacute toxicity in C57BL/6 mouse assessed as change in liver weight at 100 mg/kg,ip administrated for 14 days; type: organism-based; settings: in vivo, 336 h, time 14 day
[29] = Subacute toxicity in C57BL/6 mouse assessed as change in spleen weight at 10 mg/kg,ip administrated for 14 days; type: organism-based; settings: in vivo, 336 h, time 14 day
[30] = Subacute toxicity in C57BL/6 mouse assessed as change in spleen weight at 100 mg/kg,ip administrated for 14 days; type: organism-based; settings: in vivo, 336 h, time 14 day
[31] = Subacute toxicity in C57BL/6 mouse assessed as change in lung weight at 100 mg/kg,ip administrated for 14 days; type: organism-based; settings: in vivo, 336 h, time 14 day
[32] = Subacute toxicity in C57BL/6 mouse assessed as change in colon weight at 10 mg/kg,ip administrated for 14 days; type: organism-based; settings: in vivo, 336 h, time 14 day
[33] = Subacute toxicity in C57BL/6 mouse assessed as heart histological changes at 10 mg/kg,ip administrated for 14 days; type: organism-based; settings: in vivo, 336 h, time 14 day
[34] = Subacute toxicity in C57BL/6 mouse assessed as liver histological changes at 100 mg/kg,ip administrated for 14 days; type: organism-based; settings: in vivo, 336 h, time 14 day
[35] = Subacute toxicity in C57BL/6 mouse assessed as kidney histological changes at 10 mg/kg,ip administrated for 14 days; type: organism-based; settings: in vivo, 336 h, time 14 day
[36] = Subacute toxicity in C57BL/6 mouse assessed as colon histological changes at 100 mg/kg,ip administrated for 14 days; type: organism-based; settings: in vivo, 336 h, time 14 day

In the case of `CCCNS(=O)(=O)c1ccc2c(c1)CC(N(Cc1cc(Cl)ccc1OCCOC)C(=O)c1cc3ccccc3o1)C2` (racemic), the inhibition (J774.A1 [1]) is reported as “inactive”, the Activity (J774.A1 [2]) is reported as “Active” and the AUC(0-inf) [3] is reported as 213 ng·h/mL. The half-life [4] was 1.5 h, the Stability [5] was “Stable” and the Drug uptake [6] was “Active”. For the same compound, the concentration at 0.5 h [7] was 35300 ng/g, the Activity (Mus musculus [8]) was “Active” and the Activity (Mus musculus [9]) was “Active”. The Activity (Mus musculus [10]) was “Active”, the Activity (Mus musculus [11]) was “Active” and the Activity (Mus musculus [12]) was “Active”. For the same compound, the Activity (Mus musculus [13]) was “Active”, the Activity (Mus musculus [14]) was “Active” and the Activity (Mus musculus [15]) was “Active”. The Activity (Mus musculus [16]) was “Active”, the Activity (Mus musculus [17]) was “Active” and the Activity [18] was “Non-Toxic”. The Activity [19] was “Non-Toxic”, the Activity [20] was “Non-Toxic” and the Activity [21] was “Non-Toxic”. For the same compound, the Activity [22] was “Non-Toxic”, the Activity [23] was “Non-Toxic” and the Activity [24] was “Non-Toxic”. The Activity [25] was “Toxic”, the Activity [26] was “Non-Toxic” and the Activity [27] was “Non-Toxic”. The Activity [28] was “Non-Toxic”, the Activity [29] was “Non-Toxic” and the Activity [30] was “Non-Toxic”. The Activity [31] was “Non-Toxic”, the Activity [32] was “Non-Toxic” and the Activity [33] was “Non-Toxic”. The Activity [34] was “Non-Toxic”, the Activity [35] was “Non-Toxic” and the Activity [36] was “Non-Toxic”.
